According to patent publication US7923243B2, “Stress-responsive induction of a therapeutic agent and methods of use” (University of Southern California, priority 1999, dated 2011):

Test system: B/C10ME fibrosarcoma
Assay: Tumor formation and GCV treatment, B/C10ME fibrosarcoma in BALB/c mice
Format: in vivo
Conditions: 2×10^7 cells s.c.; GCV 100 mg/kg daily from day 21, tumor diameter about 2 cm
Method: Tumor Formation. Confluent cultures of B/C10ME clones were harvested with trypsin-EDTA (Gibco/BRL) and washed three times in PBS. Approximately 2×10^7 viable cells were resuspended in […] of PBS. Six- to eight-week-old BALB/c mice obtained from Jackson Laboratory were subcutaneously injected with an 18-gauge needle in their right flank. Tumors were palpable within 12 days of inoculation and bi-perpendicular measurements were taken of the progressively growing tumor daily. Tumor growth was monitored by measurement of the larger and smaller diameters. At the indicated times post-injection, mice were injected with GCV daily at a dosage of 100 mg/kg of body weight for about 10 days. Tumors were judged to have regressed after losing both measurability and palpability. For each retroviral construct, multiple injections of 2 to 3 independently derived transduced clonal cell lines were performed.
Complete Eradication of Tumors in G1NaGrpTk Transduced Cells. To directly compare the therapeutic efficacy of the G1NaGrpTk vector with G1TkSvNa, B/C10ME clones transduced with the respective retroviral constructs were injected subcutaneously at a dose of 2×10^7 cells per BALB/c mouse. As controls, the parental, non-transduced cells were also injected. Tumors were palpable after 12 days of injection. At day 21, when the average tumor diameter reached about 2 cm, GCV was administered. […]

Compound: Nc1nc(O)c2ncn(COC(CO)CO)c2n1 [GCV, ganciclovir]
- tumor growth following GCV treatment: tumors continued to grow at various rates
